How the values were obtained:
Experiment in all cases: relative viability (nuclei count vs DMSO), 5 days (fraction); higher = more cells survive
NCI-H1734 = test system: NCI-H1734
How it was run: (§1)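 After 5 days of treatment, lung cancer cells in 1536-well plates were fixed and stained in a single step (final 0.05% Triton X-100, 1% formaldehyde, 1 ug/ml Hoechst) and their nuclei counted on 4× images. Treatment had been applied by pin tool the day after seeding as one drug alone or as a fixed anchor-drug dose with five library-drug doses (not always all listed) in √10 steps. Relative viability is the nuclei count of treated wells divided by that of vehicle wells, and values are medians of duplicate plates.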

NCI-H838 = test system: NCI-H838
How it was run: as §1

COR-L23 = test system: COR-L23
How it was run: as §1

NCI-H1650 = test system: NCI-H1650
How it was run: as §1

NCI-H1975 = test system: NCI-H1975
How it was run: as §1

HCC-366 = test system: HCC-366
How it was run: as §1

NCI-H2023 = test system: NCI-H2023
How it was run: as §1

LOU-NH91 = test system: LOU-NH91
How it was run: as §1

NCI-H1651 = test system: NCI-H1651
How it was run: as §1

NCI-H2085 = test system: NCI-H2085
How it was run: as §1

LU99A = test system: LU99A
How it was run: as §1

NCI-H1355 = test system: NCI-H1355
How it was run: as §1

BEN = test system: BEN
How it was run: as §1

NCI-H1437 = test system: NCI-H1437
How it was run: as §1

CAL-12T = test system: CAL-12T
How it was run: as §1

NCI-H2342 = test system: NCI-H2342
How it was run: as §1

NCI-H460 = test system: NCI-H460
How it was run: as §1

NCI-H1793 = test system: NCI-H1793
How it was run: as §1

SK-LU-1 = test system: SK-LU-1
How it was run: as §1

NCI-H441 = test system: NCI-H441
How it was run: as §1

NCI-H358 = test system: NCI-H358
How it was run: as §1

## CCN(CC)CCCCNc1ncc2cc(-c3cc(OC)cc(OC)c3)c(NC(=O)NC(C)(C)C)nc2n1 + CC(=O)c1c(C)c2cnc(Nc3ccc(N4CCNCC4)cn3)nc2n(C2CCCC2)c1=O [Palbociclib] (partner 0.5 µM)
NCI-H1734; first compound 0.01 µM
  relative viability: 0.16
NCI-H1734; first compound 0.03162 µM
  relative viability: 0.281
NCI-H1734; first compound 0.1 µM
  relative viability: 0.334
NCI-H1734; first compound 0.3162 µM
  relative viability: 0.38
NCI-H1734; first compound 1 µM
  relative viability: 0.323
NCI-H838; first compound 0.01 µM
  relative viability: 0.197
NCI-H838; first compound 0.03162 µM
  relative viability: 0.223
NCI-H838; first compound 0.1 µM
  relative viability: 0.204
NCI-H838; first compound 0.3162 µM
  relative viability: 0.213
NCI-H838; first compound 1 µM
  relative viability: 0.182
COR-L23; first compound 0.01 µM
  relative viability: 0.291
COR-L23; first compound 0.03162 µM
  relative viability: 0.343
COR-L23; first compound 0.1 µM
  relative viability: 0.341
COR-L23; first compound 0.3162 µM
  relative viability: 0.312
COR-L23; first compound 1 µM
  relative viability: 0.248
NCI-H1650; first compound 0.01 µM
  relative viability: 0.311
NCI-H1650; first compound 0.03162 µM
  relative viability: 0.338
NCI-H1650; first compound 0.1 µM
  relative viability: 0.354
NCI-H1650; first compound 0.3162 µM
  relative viability: 0.308
NCI-H1650; first compound 1 µM
  relative viability: 0.296
NCI-H1975; first compound 0.01 µM
  relative viability: 0.608
NCI-H1975; first compound 0.03162 µM
  relative viability: 0.498
NCI-H1975; first compound 0.1 µM
  relative viability: 0.589
NCI-H1975; first compound 0.3162 µM
  relative viability: 0.697
NCI-H1975; first compound 1 µM
  relative viability: 0.475
HCC-366; first compound 0.01 µM
  relative viability: 0.364
HCC-366; first compound 0.03162 µM
  relative viability: 0.406
HCC-366; first compound 0.1 µM
  relative viability: 0.504
HCC-366; first compound 0.3162 µM
  relative viability: 0.438
HCC-366; first compound 1 µM
  relative viability: 0.441
NCI-H2023; first compound 0.01 µM
  relative viability: 0.317
NCI-H2023; first compound 0.03162 µM
  relative viability: 0.32
NCI-H2023; first compound 0.1 µM
  relative viability: 0.348
NCI-H2023; first compound 0.3162 µM
  relative viability: 0.347
NCI-H2023; first compound 1 µM
  relative viability: 0.291
LOU-NH91; first compound 0.01 µM
  relative viability: 0.572
LOU-NH91; first compound 0.03162 µM
  relative viability: 0.546
LOU-NH91; first compound 0.1 µM
  relative viability: 0.557
LOU-NH91; first compound 0.3162 µM
  relative viability: 0.491
LOU-NH91; first compound 1 µM
  relative viability: 0.412
NCI-H1651; first compound 0.01 µM
  relative viability: 0.539
NCI-H1651; first compound 0.03162 µM
  relative viability: 0.511
NCI-H1651; first compound 0.1 µM
  relative viability: 0.547
NCI-H1651; first compound 0.3162 µM
  relative viability: 0.541
NCI-H1651; first compound 1 µM
  relative viability: 0.47
NCI-H2085; first compound 0.01 µM
  relative viability: 0.466
NCI-H2085; first compound 0.03162 µM
  relative viability: 0.45
NCI-H2085; first compound 0.1 µM
  relative viability: 0.443
NCI-H2085; first compound 0.3162 µM
  relative viability: 0.468
NCI-H2085; first compound 1 µM
  relative viability: 0.457
LU99A; first compound 0.01 µM
  relative viability: 0.364
LU99A; first compound 0.03162 µM
  relative viability: 0.393
LU99A; first compound 0.1 µM
  relative viability: 0.457
LU99A; first compound 0.3162 µM
  relative viability: 0.446
LU99A; first compound 1 µM
  relative viability: 0.338
NCI-H1355; first compound 0.01 µM
  relative viability: 0.378
NCI-H1355; first compound 0.03162 µM
  relative viability: 0.402
NCI-H1355; first compound 0.1 µM
  relative viability: 0.465
NCI-H1355; first compound 0.3162 µM
  relative viability: 0.376
NCI-H1355; first compound 1 µM
  relative viability: 0.364
BEN; first compound 0.01 µM
  relative viability: 0.489
BEN; first compound 0.03162 µM
  relative viability: 0.417
BEN; first compound 0.1 µM
  relative viability: 0.493
BEN; first compound 0.3162 µM
  relative viability: 0.524
BEN; first compound 1 µM
  relative viability: 0.475
NCI-H1437; first compound 0.01 µM
  relative viability: 0.319
NCI-H1437; first compound 0.03162 µM
  relative viability: 0.331
NCI-H1437; first compound 0.1 µM
  relative viability: 0.326
NCI-H1437; first compound 0.3162 µM
  relative viability: 0.303
NCI-H1437; first compound 1 µM
  relative viability: 0.285
CAL-12T; first compound 0.01 µM
  relative viability: 0.411
CAL-12T; first compound 0.03162 µM
  relative viability: 0.456
CAL-12T; first compound 0.1 µM
  relative viability: 0.518
CAL-12T; first compound 0.3162 µM
  relative viability: 0.419
CAL-12T; first compound 1 µM
  relative viability: 0.408
NCI-H2342; first compound 0.01 µM
  relative viability: 0.514
NCI-H2342; first compound 0.03162 µM
  relative viability: 0.514
NCI-H2342; first compound 0.1 µM
  relative viability: 0.528
NCI-H2342; first compound 0.3162 µM
  relative viability: 0.548
NCI-H2342; first compound 1 µM
  relative viability: 0.556
NCI-H460; first compound 0.01 µM
  relative viability: 0.147
NCI-H460; first compound 0.03162 µM
  relative viability: 0.222
NCI-H460; first compound 0.1 µM
  relative viability: 0.112
NCI-H460; first compound 0.3162 µM
  relative viability: 0.165
NCI-H460; first compound 1 µM
  relative viability: 0.147
NCI-H1793; first compound 0.01 µM
  relative viability: 0.288
NCI-H1793; first compound 0.03162 µM
  relative viability: 0.295
NCI-H1793; first compound 0.1 µM
  relative viability: 0.403
NCI-H1793; first compound 0.3162 µM
  relative viability: 0.277
NCI-H1793; first compound 1 µM
  relative viability: 0.269
SK-LU-1; first compound 0.01 µM
  relative viability: 0.457
SK-LU-1; first compound 0.03162 µM
  relative viability: 0.387
SK-LU-1; first compound 0.1 µM
  relative viability: 0.359
SK-LU-1; first compound 0.3162 µM
  relative viability: 0.434
SK-LU-1; first compound 1 µM
  relative viability: 0.309
NCI-H441; first compound 0.01 µM
  relative viability: 0.193
NCI-H441; first compound 0.03162 µM
  relative viability: 0.204
NCI-H441; first compound 0.1 µM
  relative viability: 0.198
NCI-H441; first compound 0.3162 µM
  relative viability: 0.261
NCI-H441; first compound 1 µM
  relative viability: 0.193
NCI-H358; first compound 0.01 µM
  relative viability: 0.146
NCI-H358; first compound 0.03162 µM
  relative viability: 0.123
NCI-H358; first compound 0.1 µM
  relative viability: 0.159
NCI-H358; first compound 0.3162 µM
  relative viability: 0.139
NCI-H358; first compound 1 µM
  relative viability: 0.136

Source: the supplement of paper PMC10307832
